Measured values as given in patent US10856563B2, “N-acyl-amino acid derivatives for improvement of the flavor profile of edible compositions” (Givaudan S.A., priority 2012, dated 2020).

Tests used:
[1] = Test on Tang (high intensity sweetener HIS masking), evaluation by expert tasters; conditions: versus base
Experimental: In an orange flavoured Tang powdered soft drink (market product) sweetened with sucrose plus high intensity sweetener (aspartame and acesulfame-K) and containing citric acid, C18:2-gaba and C18:2-pro were tested.
All samples were evaluated by expert tasters. Tasters were asked to describe the samples focusing on authentic taste, masking off notes of high intensity sweetener, mouthfeel & body, enhancement, richness, juiciness, long lastingness, salivation, sweetness
Base is Orange flavoured Tang
Base: sweet, orange, licorice, and lingering high intensity sweetener off-notes, bitter, thin

[2] = Test on soy milk (soy protein masking), evaluation by expert tasters; conditions: 2 ppm in soy milk (1.8% fat), 5% sucrose, milk flavour 0.1%
Experimental: In a soy milk (1.8% fat) sweetened with 5% sucrose by weight, flavoured with a proprietary milk flavour at a dosage of 0.1%, C18:2-gaba was added at 2 ppm
Samples were evaluated by expert tasters. Tasters were asked to describe the samples focusing on authentic taste, masking of soy protein off notes, mouthfeel, fullness, salivation, sweetness, richness, long lastingness and fattiness.
Soy milk, 5% sucrose, milk flavor @ 0.1%: sweet, dry, green, soy bean taste

[3] = Test on liquid margarine (KCL masking), evaluation by expert tasters; conditions: 2 ppm in Blueband liquid margarine, 0.8% KCL, proprietary masking flavour 0.01%
Experimental: In Blueband liquid margarine (market product) with added KCL 0.8% and a proprietary masking flavour @ 0.01% 18:2 gaba was added at 2 ppm.
Samples were evaluated by expert tasters. Tasters were asked to describe the samples focusing on authentic taste, masking of KCL off notes, mouthfeel, saltiness, fullness, salivation, long lastingness and fattiness.
Base is Blueband, 0.8% KCL, proprietary masking @ 0.01%
Base: metallic, buttery, bitter and soapy

## CCCCC/C=C\C/C=C\CCCCCCCC(=O)N1CCC[C@H]1C(=O)O [C18:2-Pro, N-linoleoyl-Pro]
[1]; 1 ppm in orange flavoured Tang (sucrose, aspartame, acesulfame-K, citric acid)
  masking off notes of high intensity sweetener: the off-notes of the high intensity sweetener were suppressed
[1]; 1 ppm in orange flavoured Tang
  taste description (enhancement, juiciness, authentic taste): the fresh, sweet juicy orange notes are enhanced, characteristic of authentic fresh orange fruit

## CCCCC/C=C\C/C=C\CCCCCCCC(=O)NCCCC(=O)O [C18:2-gaba]
[2]
  masking of soy protein off notes: good reduction of the undesirable soy bean off-taste
  taste description (richness, mouthfeel, fattiness): clean, rich, creamy and milky
[1]; 0.5 ppm in orange flavoured Tang (sucrose, aspartame, acesulfame-K, citric acid)
  masking off notes of high intensity sweetener: the off-notes of the high intensity sweetener were suppressed
[1]; 0.5 ppm in orange flavoured Tang
  taste description (enhancement, juiciness, mouthfeel): the sweet juicy orange notes and mouthfeel are enhanced
[3]
  authentic taste: more authentic butter
  masking of KCL off notes: less metallic and bitter notes
  saltiness and mouthfeel: more saltiness, more mouthfeel
